Patent publication US8076348B2, “Acylguanidine derivative or salt thereof” (Astellas Pharma Inc., priority 2005, dated 2011)
Each block holds one molecule with its values, some of them ahead of it.

Columns and labels:
Hartley male guinea pigs = assay: Preventive effect in guinea pig migraine model (5-HT-induced dura mater protein leakage); format: in vivo; details: for minimum amount showing the maximum drug efficacy / dose at which the leaked protein quantity-reducing action was shown / lowering of leaked protein quantity to the standard value when the dose was increased: intravenous; for dose at which the leaked protein quantity-reducing action was shown: 5-HT-induced leakage; for lowering of leaked protein quantity to the standard value when the dose was increased: RS-127445 3 to 10 mg/kg, SB-269970 10 to 30 mg/kg
Protocol: Test Method (5) Preventive Effect in Guinea Pig Migraine Model
This test system evaluates the migraine-preventive effect by measuring the amount of this leaked protein in the presence of a compound to be tested and was carried out by partially modifying the method described by Rachel A. Spokes and Vicki C. Middlefell in “European Journal of Pharmacology”, (Holland), 1995, vol. 281, p. 75-79.
Hartley male guinea pigs (250 to 350 g) were anesthetized by the intraperitoneal administration (i.p.) of urethane (1.5 g/kg). By applying a simple canulation to a latent vein, 50 mg/kg of a fluorescent protein (FITC-BSA) was intravenously administered (i.v.) and, 5 minutes thereafter, physiological saline or 1 μmol/ml/kg of 5-HT was intravenously administered. Perfusion was carried out with physiological saline 15 minutes thereafter and blood was washed out. […] By detaching the skull, the dura mater was extracted and incubated in an Eppendorf tube at 37° C. for 16 hours in the presence of physiological saline adjusted to pH 11. By carrying out a centrifugal operation, the supernatant was dispensed into a plate. The fluorescence intensity was measured using a fluorescence plate reader (excitation wavelength 485 nm, […] 530 nm). By weighing the dura mater weight, the fluorescence intensity per mg dura mater protein was calculated.
The values of fluorescence intensity measured at the time of the administration and non-administration of each compound are shown in FIG. 4 to FIG. 7.

male Wistar rats = assay: Inhibitory effect for defecation at the time of confined stress loading (rat confined stress defecation model); format: in vivo; details: for action to suppress defecation (number of feces): 10 mg/kg p.o., compound used independently, feces counted 1 hour after stress loading, 10 mg/kg; for number of feces, significant difference in comparison with the non-administration group: rat, 1, 3 and 10 mg/kg administration groups, N=10
Protocol: Test Method (4) Inhibitory Effect for Defecation at the Time of Confined Stress Loading
The IBS-treating effect of the compound (I) of the present invention was evaluated using a method in which a confined stress is applied to rats and the evacuation quantity is measured (cf. “The Journal of Pharmacology Experimental Therapeutics”, (USA), 1992, vol. 261, p. 297-303).
An agent to be tested was administered to male Wistar rats (body weight 250 to 320 g, 10 animals for each group) and a confined stress was applied thereto 30 minutes thereafter. A confining cage (trade name: KN-468, 265 mm in width×95 mm in length×200 mm in height, Natsume Seisakusho, Tokyo) was used in the confined stress loading, and the number of feces during 1 hour after the stress loading was counted.

5-HT2B receptor [1] = molecular target: T1, 5-HT2B receptor (Homo sapiens, UniProt P41595); assay: 5-HT2B receptor binding test; parameters: expressed in transfected cells; host or cells: HEK293-EBNA cells (membrane sample); details: [3H] Mesulergine, human 5-HT2B receptor expressing HEK293-EBNA cell membrane
Protocol: Test Method (1) 5-HT2B Receptor Binding Test
(i) Membrane Sample Preparation
(§1) Cultured human 5-HT2B receptor-expressing HEK293-EBNA cells were washed with a phosphate buffer (PBS)(−). The cells were peeled off using a scraper in the presence of PBS(−), and the cells were recovered by a centrifugal treatment (1,000 rpm, 10 min, 4° C.). In the presence of 5 mM tris-hydrochloric acid (Tris-HCl) (pH 7.4) buffer, these were homogenized using a homogenizer (registered trademark: Polytron (PTA 10-TS)) and subjected to a centrifugal treatment (40,000×g, 10 min, 4° C.). In the presence of 50 mM Tris-HCl (pH 7.4) buffer, these were suspended using a glass-Teflon (registered trademark) homogenizer. By carrying out a centrifugal treatment (40,000×g, 10 min, 4° C.), these were suspended in 50 mM Tris-HCl (pH 7.4) and stored at −80° C.
(§2) (ii) Receptor Binding Test
(§3) A total volume of 500 μl containing 50 mM Tris-HCl, 4-mM-CaCl2 (pH 7.4) buffer, the human 5-HT2B receptor expressing HEK293-EBNA cell membrane sample and a radio ligand [^3H] Mesulergine (3.1 TBq/mmol); was incubated at 25° C. for 1 hour. The compound was dissolved in 100% DMSO and diluted to respective concentrations. Nonspecific binding was regarded as the binding quantity in the presence of 1 μM ritanserin, and a result of subtracting the nonspecific binding quantity from the total binding quantity was regarded as the specific binding quantity. By adding 4 ml of 50 mM Tris-HCl buffer (pH 7.4), filtered under a reduced pressure trough a GF/B glass filter, and the filter was washed with the same buffer (4 ml×3). The glass filter was soaked in 5 ml of a liquid scintillator (trade name: Aquasol-2), and the radioactivity quantity was measured using a liquid scintillation counter.

human 5-HT7 receptor = molecular target: T2, human 5-HT7 receptor (Homo sapiens, UniProt P34969); assay: 5-HT7 receptor binding test; details: [3H] 5-HT, human 5-HT7 receptor expressing CHO cell membrane
T2 construct: expressed in transfected cells; host or cells: CHO cells (membrane sample)
Protocol: Test Method (2) 5-HT7 Receptor Binding Test (i) Membrane Sample Preparation
as §1, with “5-HT7 receptor expressing CHO” for “5-HT2B receptor-expressing HEK293-EBNA”, “PBS(−).” for “with a phosphate buffer (PBS)(−).”, “Tris-HCl” for “tris-hydrochloric acid (Tris-HCl)”
as §2
as §3, with “Tris-HCl, 4 mM CaCl2” for “Tris-HCl, 4-mM-CaCl2”, “human 5-HT7” for “human 5-HT2B”, “expressing CHO” for “expressing HEK293-EBNA”, “[^3H] 5-HT (3.40 TBq/mmol)” for “[^3H] Mesulergine (3.1 TBq/mmol);”, “of 10” for “of 1”, “μM metergoline,” for “μM ritanserin,”

5-HT2B receptor [2] = molecular target: T1, 5-HT2B receptor; details: literature value; cited from earlier work

T2 sequence (P34969 whole entry): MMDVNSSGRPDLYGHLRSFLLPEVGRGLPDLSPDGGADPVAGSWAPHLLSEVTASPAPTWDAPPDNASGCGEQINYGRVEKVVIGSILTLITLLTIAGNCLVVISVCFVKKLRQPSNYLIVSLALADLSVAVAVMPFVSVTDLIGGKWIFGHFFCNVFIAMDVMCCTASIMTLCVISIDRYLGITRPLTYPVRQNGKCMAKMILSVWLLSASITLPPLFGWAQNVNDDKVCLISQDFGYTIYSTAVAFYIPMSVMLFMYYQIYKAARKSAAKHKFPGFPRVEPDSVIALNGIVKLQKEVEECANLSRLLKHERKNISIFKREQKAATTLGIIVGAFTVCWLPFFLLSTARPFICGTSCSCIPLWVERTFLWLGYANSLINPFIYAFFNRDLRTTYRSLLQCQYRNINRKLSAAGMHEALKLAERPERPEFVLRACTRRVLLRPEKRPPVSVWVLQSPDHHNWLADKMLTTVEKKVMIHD
T1 sequence (P41595 whole entry): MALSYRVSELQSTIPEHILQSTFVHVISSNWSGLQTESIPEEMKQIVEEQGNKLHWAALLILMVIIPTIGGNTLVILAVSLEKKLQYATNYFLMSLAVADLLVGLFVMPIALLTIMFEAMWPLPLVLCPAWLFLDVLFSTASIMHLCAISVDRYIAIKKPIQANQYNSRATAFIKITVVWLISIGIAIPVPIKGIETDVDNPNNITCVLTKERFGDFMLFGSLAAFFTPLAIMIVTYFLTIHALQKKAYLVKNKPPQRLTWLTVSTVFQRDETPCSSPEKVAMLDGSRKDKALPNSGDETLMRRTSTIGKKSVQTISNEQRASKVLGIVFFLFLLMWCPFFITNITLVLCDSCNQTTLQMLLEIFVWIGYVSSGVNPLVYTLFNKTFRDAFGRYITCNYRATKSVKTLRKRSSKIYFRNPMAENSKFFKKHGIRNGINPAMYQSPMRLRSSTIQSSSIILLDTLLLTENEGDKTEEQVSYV

SMILES: CC1CCN(CC[C@H]2CCCN2S(=O)(=O)c2cccc(O)c2)CC1 [SB-269970, (R)-3-(2-(2-(4-methylpiperidine-1-yl)ethyl)pyrrolidine-1-sulfonyl)phenol]
minimum amount showing the maximum drug efficacy (Hartley male guinea pigs): 10 mg/kg | dose at which the leaked protein quantity-reducing action was shown (Hartley male guinea pigs): 10 mg/kg | lowering of leaked protein quantity to the standard value when the dose was increased (Hartley male guinea pigs): did not lower the leaked protein quantity to the standard value | action to suppress defecation (number of feces) (male Wistar rats; rat): did not show the action to suppress defecation | number of feces, significant difference in comparison with the non-administration group (male Wistar rats): Significant difference was not found

Ki (5-HT2B receptor [1]): 1.5 nM | Ki (human 5-HT7 receptor): 0.99 nM
SMILES: COC1(C)c2cc(C(=O)N=C(N)N)ccc2-c2sccc21 (centres unmarked) [Example 83]

Ki (5-HT2B receptor [1]): 0.26 nM | Ki (human 5-HT7 receptor): 2.6 nM
SMILES: CC(C)N1c2ccccc2Oc2ccc(C(=O)N=C(N)N)cc21 [Example 66, N-(diaminomethylene)-10-isopropyl-10H-phenoxazine-2-carboxamide]

Ki (5-HT2B receptor [1]): 1.3 nM | Ki (human 5-HT7 receptor): 2.5 nM
SMILES: NC(N)=NC(=O)c1ccc2c(c1)C1(CCCO1)c1ccsc1-2 (centres unmarked) [Example 84, N-(diaminomethylene)-4,5-dihydro-3H-spiro[furan-2,4′-indeno[1,2-b]thiophene]-6′-carboxamide]
ED50 (male Wistar rats; po, rat, p.o., read-out: ED50 (50% effective dose), suppressing action on defecation): 0.72 mg/kg

Ki (5-HT2B receptor [1]): 4.6 nM | Ki (human 5-HT7 receptor): 0.64 nM
SMILES: CC(C)n1c2ccccc2c2ccc(C(=O)N=C(N)N)cc21 [Example 1, N-(diaminomethylene)-9-isopropyl-9H-carbazole-2-carboxamide]
leaked protein quantity (Hartley male guinea pigs; 30 mg/kg oral administration): almost completely suppressed the leaked protein quantity

Ki (5-HT2B receptor [1]): 0.83 nM | Ki (human 5-HT7 receptor): 0.78 nM
SMILES: NC(N)=NC(=O)c1ccc2c(c1)C1(SCCS1)c1ccsc1-2 [Example 81, N-(diaminomethylene)spiro[1,3-dithiolan-2,4′-indeno[1,2-b]thiophene]-6′-carboxamide]

SMILES: CC(C)c1cc(-c2ccc(F)c3ccccc23)nc(N)n1 [RS-127445, 2-amino-4-(4-fluoronaphth-1-yl)-6-isopropylpyrimidine]
minimum amount showing the maximum drug efficacy (Hartley male guinea pigs): 3 mg/kg | dose at which the leaked protein quantity-reducing action was shown (Hartley male guinea pigs): 3 mg/kg | lowering of leaked protein quantity to the standard value when the dose was increased (Hartley male guinea pigs): did not lower it to the standard value | action to suppress defecation (number of feces) (male Wistar rats; rat): did not show the action to suppress defecation | number of feces, significant difference in comparison with the non-administration group (male Wistar rats): Significant difference was not found | 5-HT2B receptor-selective against 5-HT1A, 5-HT1B, 5-HT2A, 5-HT2C, 5-HT3, 5-HT6, 5-HT7, α1, M1, D2 and the like receptors (5-HT2B receptor [2]): ≥ 1000 times
